The record followed here is US8143408B2, “N-(8-heteroaryltetrahydronaphtalene-2yl) or N-(5-heteroarylchromane-3-yl) carboxamide derivatives for the treatment of pain” (AstraZeneca AB, priority 2007, dated 2012).

The structures appear in SMILES notation.

T1 sequence (Q15858 whole entry): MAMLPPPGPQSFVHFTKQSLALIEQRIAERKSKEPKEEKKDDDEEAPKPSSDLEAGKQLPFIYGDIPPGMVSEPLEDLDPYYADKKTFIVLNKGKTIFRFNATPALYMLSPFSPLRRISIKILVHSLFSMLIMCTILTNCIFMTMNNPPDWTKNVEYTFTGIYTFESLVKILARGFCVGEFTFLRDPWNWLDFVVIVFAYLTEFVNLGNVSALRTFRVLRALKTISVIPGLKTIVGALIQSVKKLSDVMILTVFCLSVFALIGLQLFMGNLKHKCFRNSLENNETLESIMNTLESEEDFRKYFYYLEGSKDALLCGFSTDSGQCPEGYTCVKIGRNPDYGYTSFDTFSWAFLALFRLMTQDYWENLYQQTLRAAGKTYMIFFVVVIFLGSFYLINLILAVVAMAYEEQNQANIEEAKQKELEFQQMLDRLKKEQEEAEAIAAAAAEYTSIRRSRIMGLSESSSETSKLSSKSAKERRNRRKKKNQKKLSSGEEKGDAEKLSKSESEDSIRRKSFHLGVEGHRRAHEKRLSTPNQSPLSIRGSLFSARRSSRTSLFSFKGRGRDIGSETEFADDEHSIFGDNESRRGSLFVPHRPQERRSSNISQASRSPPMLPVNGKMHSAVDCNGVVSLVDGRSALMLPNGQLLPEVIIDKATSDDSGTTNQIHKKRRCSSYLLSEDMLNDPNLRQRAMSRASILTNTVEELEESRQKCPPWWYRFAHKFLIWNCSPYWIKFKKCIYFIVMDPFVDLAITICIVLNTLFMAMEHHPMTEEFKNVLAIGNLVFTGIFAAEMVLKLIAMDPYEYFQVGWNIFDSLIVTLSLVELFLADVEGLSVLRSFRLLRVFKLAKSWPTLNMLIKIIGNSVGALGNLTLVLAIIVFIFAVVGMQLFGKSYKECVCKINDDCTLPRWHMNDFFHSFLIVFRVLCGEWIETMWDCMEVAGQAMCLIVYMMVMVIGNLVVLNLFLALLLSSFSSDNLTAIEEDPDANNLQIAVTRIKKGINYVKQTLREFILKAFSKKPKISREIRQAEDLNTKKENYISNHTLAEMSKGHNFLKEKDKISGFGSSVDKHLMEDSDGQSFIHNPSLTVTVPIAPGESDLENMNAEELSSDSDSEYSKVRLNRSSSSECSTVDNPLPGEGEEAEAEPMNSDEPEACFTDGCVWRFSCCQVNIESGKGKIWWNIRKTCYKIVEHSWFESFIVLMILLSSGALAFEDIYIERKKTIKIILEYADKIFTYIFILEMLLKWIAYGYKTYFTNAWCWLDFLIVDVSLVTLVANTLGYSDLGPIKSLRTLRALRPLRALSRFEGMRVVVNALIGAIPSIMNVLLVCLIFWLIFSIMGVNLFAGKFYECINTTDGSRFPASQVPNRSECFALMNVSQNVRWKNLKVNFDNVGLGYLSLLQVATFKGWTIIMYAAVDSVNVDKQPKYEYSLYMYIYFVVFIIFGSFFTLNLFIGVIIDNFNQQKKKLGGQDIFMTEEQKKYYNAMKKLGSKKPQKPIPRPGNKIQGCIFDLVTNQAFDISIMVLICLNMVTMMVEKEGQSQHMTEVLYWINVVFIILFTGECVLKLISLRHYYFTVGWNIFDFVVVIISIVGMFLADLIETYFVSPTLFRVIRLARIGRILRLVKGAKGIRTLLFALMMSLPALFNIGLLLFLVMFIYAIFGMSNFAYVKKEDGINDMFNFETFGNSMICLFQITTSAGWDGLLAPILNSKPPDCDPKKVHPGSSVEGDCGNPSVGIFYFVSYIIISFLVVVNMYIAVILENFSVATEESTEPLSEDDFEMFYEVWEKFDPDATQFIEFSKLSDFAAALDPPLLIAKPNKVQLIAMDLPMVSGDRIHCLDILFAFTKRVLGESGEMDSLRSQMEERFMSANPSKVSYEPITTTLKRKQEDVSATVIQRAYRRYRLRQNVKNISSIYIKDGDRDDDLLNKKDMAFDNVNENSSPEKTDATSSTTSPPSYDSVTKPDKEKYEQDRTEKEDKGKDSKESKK

The experiment has as its target T1, Nav1.7 voltage-gated sodium channel (Homo sapiens, UniProt Q15858).
T1 construct: Gene(s) encoding the full-length protein of the voltage-gated sodium channel of interest are cloned and expressed; expressed in transfected cells
The experiment in a line: Whole-cell voltage clamp electrophysiology assay. As to conditions: cells stably expressing the voltage-gated sodium channel of interest. In kind it is cell-based. The source says:
Gene(s) encoding the full-length protein of the voltage-gated sodium channel of interest are cloned and expressed under a suitable promoter in a suitable cell line, as well known in the art. […] Suitable screening assays are as follows.
Electrophysiological studies can be performed using automated patch-clamp electrophysiology platforms, like IonWorks HT, IonWorks Quattro, PatchXpress, QPatch or any other suitable platform. […] Suitable extracellular and intracellular buffer for such experiments are applied according to the instructions given by the manufacturer of the automated patch-clamp platforms. Cells that express the voltage-gated sodium channel protein of interest are exposed to drugs through the pipetting system integrated in the platforms. A suitable voltage stimulus protocol is used to activate the voltage-gated sodium channel proteins of interest through depolarisation from a defined holding potential.
Electrophysiological studies can also be performed using the whole cell configuration of the standard patch clamp technique. In this assay, cells that express the voltage-gated sodium channel protein of interest are exposed to the drugs by conventional microperfusion systems and a suitable voltage stimulus protocol is used to activate the voltage-gated sodium channels.
In turn, `O=C(N[C@@H]1CCc2cccc(-c3cccnc3F)c2C1)c1ccc(OC2CCOCC2)nc1` [Example 145, N-[(2R)-8-(2-fluoropyridin-3-yl)-1,2,3,4-tetrahydronaphthalen-2-yl]-6-(tetrahydro-2H-pyran-4-yloxy)nicotinamide] showed a half-inhibitory concentration (IC50) of 200 nM.
The figure for `Cc1cc(-c2cccc3c2C[C@H](NC(=O)c2ccc(OC4CCCOC4)nc2)CO3)cnc1F` (stereo partly drawn) [Example 151, N-[(3S)-5-(6-fluoro-5-methylpyridin-3-yl)-3,4-dihydro-2H-chromen-3-yl]-6-(tetrahydro-2H-pyran-3-yloxy)nicotinamide] is 251 nM; for `COc1ncc(-c2cccc3c2C[C@H](NC(=O)c2ccc(OCCOCC(F)(F)F)nc2)CC3)cn1` [Example 162, N-[(2R)-8-(2-methoxypyrimidin-5-yl)-1,2,3,4-tetrahydronaphthalen-2-yl]-6-[2-(2,2,2-trifluoroethoxy)ethoxy]nicotinamide] it is 501 nM.
Under `O=C(N[C@@H]1COc2cccc(-c3ccncc3)c2C1)c1ccc(OC2CCC2)nc1` [Example 29, 6-(cyclobutyloxy)-N-[(3S)-5-pyridin-4-yl-3,4-dihydro-2H-chromen-3-yl]nicotin-amide] stands 158 nM.
The molecule `O=C(N[C@@H]1COc2cccc(-c3ccc(CO)nc3)c2C1)c1ccc(OCC(F)(F)F)nc1` [Example 212, N-{(3S)-5-[6-(hydroxymethyl)pyridin-3-yl]-3,4-dihydro-2H-chromen-3-yl}-6-(2,2,2-trifluoroethoxy)nicotinamide] had an IC50 of 100 nM.
Under `COc1ncc(-c2cccc3c2C[C@@H](NC(=O)c2ccc(OC(C)C)nc2)CC3)cn1` [Example 73, 6-isopropoxy-N-[(2S)-8-(2-methoxypyrimidin-5-yl)-1,2,3,4-tetrahydronaphthalen-2-yl]nicotinamide] stands 3980 nM.
Molecule `COc1ncc(-c2cccc3c2C[C@H](NC(=O)c2ccc(OCCOC(C)C)nc2)CO3)cn1` [Example 184, 6-(2-isopropoxyethoxy)-N-[(3S)-5-(2-methoxypyrimidin-5-yl)-3,4-dihydro-2H-chromen-3-yl]nicotinamide] had an IC50 of 501 nM.
Under `COc1ncccc1-c1cccc2c1C[C@H](NC(=O)c1ccc(OC(C)C)nc1)CO2` [Example 71, 6-isopropoxy-N-[(3S)-5-(2-methoxypyridin-3-yl)-3,4-dihydro-2H-chromen-3-yl]nicotinamide] stands 2000 nM.
Under `COc1ncc(-c2cccc3c2C[C@H](NC(=O)c2ccc(OC(C)C)nc2)CC3)cn1` [Example 82, 6-isopropoxy-N-[(2R)-8-(2-methoxypyrimidin-5-yl)-1,2,3,4-tetrahydronaphthalen-2-yl]nicotinamide] stands 2510 nM; under `COc1ccc(-c2cccc3c2C[C@H](NC(=O)c2ccc(OC4CCOCC4)nc2)CO3)cn1` [Example 134, N-[(3S)-5-(6-methoxypyridin-3-yl)-3,4-dihydro-2H-chromen-3-yl]-6-(tetrahydro-2H-pyran-4-yloxy)nicotinamide], 316 nM; under `COc1ncc(-c2cccc3c2C[C@H](NC(=O)c2ccnc(OCCOCC(F)(F)F)c2)CC3)cn1` [Example 190, N-[(2R)-8-(2-methoxypyrimidin-5-yl)-1,2,3,4-tetrahydronaphthalen-2-yl]-2-[2-(2,2,2-trifluoroethoxy)ethoxy]isonicotinamide], 7940 nM.
Under `CC(C)Oc1ccc(C(=O)N[C@@H]2COc3cccc(-c4ccnc(F)c4)c3C2)cn1` [Example 62, N-[(3S)-5-(2-fluoropyridin-4-yl)-3,4-dihydro-2H-chromen-3-yl]-6-isopropoxynicotinamide] stands 251 nM; under `CC(C)Oc1ccc(C(=O)N[C@@H]2CCc3cccc(-c4ccncc4)c3C2)cn1` [Example 14, 6-isopropoxy-N-[(2R)-8-pyridin-4-yl-1,2,3,4-tetrahydronaphthalen-2-yl]nicotin-amide], 251 nM; under `O=C(N[C@@H]1COc2cccc(-c3cncnc3)c2C1)c1ccc(OCCC(F)(F)F)nc1` [Example 54, N-[(3S)-5-pyrimidin-5-yl-3,4-dihydro-2H-chromen-3-yl]-6-(3,3,3-trifluoropropoxy)nicotinamide], 63.1 nM.
For `COc1cc(-c2cccc3c2C[C@H](NC(=O)c2ccc(OCC4COCCO4)nc2)CO3)ccn1` (stereo partly drawn) [Example 165, 6-(1,4-dioxan-2-ylmethoxy)-N-[(3S)-5-(2-methoxypyridin-4-yl)-3,4-dihydro-2H-chromen-3-yl]nicotinamide], the IC50 was 158 nM.
The figure for `Cn1cc(-c2cccc3c2C[C@H](NC(=O)c2ccc(OC(F)(F)F)cc2)CC3)cn1` [Example 6, N-[(2R)-8-(1-Methyl-1H-pyrazol-4-yl)-1,2,3,4-tetrahydronaphthalen-2-yl]-4-(trifluoromethoxy)-benzamide] is 1000 nM.
Under `COCCOc1ccc(C(=O)N[C@@H]2COc3cccc(-c4cnc(C)nc4)c3C2)cn1` [Example 141, 6-(2-methoxyethoxy)-N-[(3S)-5-(2-methylpyrimidin-5-yl)-3,4-dihydro-2H-chromen-3-yl]nicotinamide] stands 3980 nM.
The figure for `CC(C)Oc1ccc(C(=O)N[C@@H]2CCc3cccc(-c4ccncc4F)c3C2)cn1` [Example 39, N-[(2R)-8-(3-fluoropyridin-4-yl)-1,2,3,4-tetrahydronaphthalen-2-yl]-6-isopropoxynicotinamide] is 126 nM.
In the case of `CC#CCOc1ccc(C(=O)N[C@@H]2COc3cccc(-c4cnc(OC)nc4)c3C2)cn1` [Example 124, 6-(but-2-yn-1-yloxy)-N-[(3S)-5-(2-methoxypyrimidin-5-yl)-3,4-dihydro-2H-chromen-3-yl]nicotinamide], half-maximal inhibition (IC50) required 158 nM.
The figure for `CCCCn1ccc(C(=O)N[C@@H]2COc3cccc(-c4cnc(F)c(C)c4)c3C2)cc1=O` [Example 152, 1-butyl-N-[(3S)-5-(6-fluoro-5-methylpyridin-3-yl)-3,4-dihydro-2H-chromen-3-yl]-2-oxo-1,2-dihydropyridine-4-carboxamide] is 1260 nM; for `COc1ncc(-c2cccc3c2C[C@H](NC(=O)c2ccc(OCC4CCOCC4)nc2)CO3)cn1` [Example 123, N-[(3S)-5-(2-methoxypyrimidin-5-yl)-3,4-dihydro-2H-chromen-3-yl]-6-(tetrahydro-2H-pyran-4-ylmethoxy)nicotinamide] it is 1000 nM; for `COc1ncc(-c2cccc3c2C[C@H](NC(=O)c2ccc(OCCOCC(F)(F)F)nc2)CO3)cn1` [Example 163, N-[(3S)-5-(2-methoxypyrimidin-5-yl)-3,4-dihydro-2H-chromen-3-yl]-6-[2-(2,2,2-trifluoroethoxy)ethoxy]nicotinamide] it is 39.8 nM.
Under `COc1ncc(-c2cccc3c2C[C@H](NC(=O)c2ccc(OCC4CCCO4)nc2)CO3)cn1` (stereo partly drawn) [Example 121, N-[(3S)-5-(2-methoxypyrimidin-5-yl)-3,4-dihydro-2H-chromen-3-yl]-6-(tetrahydrofuran-2-ylmethoxy)nicotinamide] stands 5010 nM; under `Cc1ncc(-c2cccc3c2C[C@H](NC(=O)c2ccc(OCC4CCCO4)nc2)CC3)cn1` (stereo partly drawn) [Example 161, N-[(2R)-8-(2-methylpyrimidin-5-yl)-1,2,3,4-tetrahydronaphthalen-2-yl]-6-(tetrahydrofuran-2-ylmethoxy)nicotinamide], 7940 nM.

What is called IC50 is the midpoint of a concentration-inhibition curve. Higher therefore signals weaker potency in that assay.
